According to patent US4806642A, “Purine derivatives” (Warner-Lambert Company, priority 1987, dated 1989):

Legend:
T-cells = assay: selective cytotoxicity for T-cells in the presence of 2'-deoxyguanosine (standard test, Science, 214, 1137, 1981); type: cell-based; conditions: in the presence of 10 micromoles of 2'-deoxyguanosine
Text: (§1) The same compounds also were found by a standard test (Science, 214, 1137, 1981) to be selectively cytotoxic for T-cells in the presence of 2'-deoxyguanosine at a similar concentration range. For example, 2,8-diamino-9-[(2-hydroxyethoxy)methyl)]-9H-purine-6-ol is selectively cytotoxic to T-cell at a concentration of about 30 micromoles in the presence of 10 micromoles of 2'-deoxyguanosine. Similarly, 2-[(2,8-diamino-6-hydroxy-9H-purin-9-yl)methoxy]-1,3-propanediol is selectively cytotoxic to T-cell at a concentration of about 7 micromoles in the presence of 10 micromoles of 2'-deoxyguanosine. Both compounds were nontoxic to B-cell in the presence of the same amount of 2'-deoxyguanosine. Since T-cells play a central role in immune response, use of the compounds of the invention is contemplated for the immunoregulation of autoimmune diseases such as rheumatoid arthritis, systemic lupus erythematosus, inflammatory bowel disease, cancer, and viral diseases, transplantation, juvenile diabetes, myasthenia gravis, and multiple sclerosis. The present invention thus includes compositions containing a compound of formula 1 in treating disease such as autoimmune disease characterized by abnormal immune response in warmblooded animals. […]

B-cell = assay: toxicity to B-cell in the presence of 2'-deoxyguanosine; type: cell-based; conditions: in the presence of the same amount (10 micromoles) of 2'-deoxyguanosine
Text: as §1

SMILES | concentration at which selectively cytotoxic to T-cell (T-cells) | toxicity to B-cell (B-cell)
Nc1nc(O)c2nc(N)n(COC(CO)CO)c2n1 [2-[(2,8-Diamino-6-hydroxy-9H-purin-9-yl)methoxy]-1,3-propanediol] | about 7 micromoles | nontoxic
Nc1nc2c(nc(N)n2COCCO)c(=O)[nH]1 [2,8-Diamino-9-[(2-hydroxyethoxy)methyl)]-9H-purin-6-ol] | about 30 micromoles | nontoxic
